As a reminder, the minimal effective concentration is the lowest level tested that produced the effect sought. Read a low minimal effective concentration as an effect from little substance. A word on the MBC: it is the smallest concentration meeting the test's criterion for killing. A word on the MIC: it is the smallest concentration in the dilution series that meets the test's criterion for growth inhibition. One may read the IC50 as the concentration at which inhibition is half-maximal.

The subject of one assay is S. saprophyticus biofilm. The experiment in a line: Biofilm eradication assay (MBEC, MTT). The class given is cell-based, Staphylococcus saprophyticus. The note with it: geometric mean, S. saprophyticus (n = 3); for minimal effective concentration: Staphylococcus saprophyticus, 24 h. As for the experimental part:
(§1) The determination of the biofilm eradication potential of NPs and ATBs was performed as previously described. Briefly, 100 µL of bacterial inoculum (1.5 × 10^6 CFU/mL) and 100 µL of MHB + 1% glucose were introduced into the microplate, incubated at 37°C for 24 h, and the microplate was gently emptied and washed three times with PBS. Then, 200 µL of ATBs or NPs at respective concentrations ranging from 8 to 1024 µg/mL and from 16 to 2048 µg/mL were incubated at 37°C for 24 h. Once incubation was completed, the microplate was processed as described above, and the percentage of biofilm eradication was calculated using the formula below. The minimal biofilm eradicating concentration (MBEC) was recorded as the lowest concentration of the test sample that reduces 100% of biofilm:(2) % biofilm eradication=ODcontrol−ODblank−ODtest−ODblank/ODcontrol−ODblank×100.

For a further assay, the system named is S. aureus. The experiment in a line: MIC and MBC, broth microdilution. The note with it: geometric mean, S. aureus (n = 3). Format: cell-based, Staphylococcus aureus. Here is the method:
Seven clinical isolates of Staphylococcus spp. including 2 S. aureus, 3 S. saprophyticus, and 2 S. epidermidis were used. They were isolated from urine samples in our previous study. Two reference strains (S. aureus ATCC1026 and S. epidermidis ATCC35984) obtained from the American Type Culture Collection were also included. They were kept in the mixture of glycerol and Mueller Hinton Broth (MHB) (1:1) at −20°C, and the activation was achieved using the streak technique on Mueller Hinton agar (MHA) medium.
The MICs of ATBs and NPs were determined by the broth microdilution method as previously described. NPs and ATBs were, respectively, prepared at 4096 µg/mL and 512 µg/mL and serially diluted twofold with MHB in a 96-well microplate at a volume of 100 µL. Then, the wells were filled with 100 µL of inoculum (1.5 × 10^6 CFU/mL) to give final concentrations ranging from 1024 µg/mL to 0.5 µg/mL and 128 µg/mL to 0.062 µg/mL of NPs and ATBs, respectively. The microplates were incubated for 24 h at 37°C. Wells containing only bacterial inoculum were used as the negative control. After incubation, a volume of 40 µL of INT solution (0.2 mg/mL) was added to each well, and the microplate was incubated at 37°C for 30 min. Viable bacteria cells change the yellow dye of INT to a pink color. The MIC was considered as the lowest concentration of the sample at which there was no change in the coloration of the medium, corresponding to the complete inhibition of microbial growth.
All tests were performed in triplicate.
On the technique in general: Dilution methods test growth across graded concentrations, often in twofold steps.

Assay [1] has as its system UROtsa urinary epithelial cells. The experiment in a line: Cytotoxicity, MTT assay. Format: cell-based. The note with it: 48 h. As for the experimental part:
(§2) Two cell lines, including Raw 264.7 macrophages and the urinary epithelial cell line UROtsa obtained from the American Type Culture Collection (Rockville, MD, USA), were used. They were cultured in Dulbecco's modified Eagle's medium (DMEM), which was supplemented with 10% fetal bovine serum (FBS) and 1% penicillin, streptomycin, and fungizone (PSF). They were then grown at 37°C in a humidified environment containing 5% CO2.
(§3) The cytotoxicity of the selected synergistic combinations, as well as the individual constituents of combinations, against the abovementioned cell lines was performed by the MTT assay as previously described. Briefly, cells from each line were harvested in the logarithmic phase using trypsin (0.05% trypsin, 0.02% EDTA in PBS). Cell suspension was diluted with an appropriate growth medium to obtain a cell density of 10^4 cells/well. A 100 µL aliquot of each suspension was seeded into 96-well cell culture plates and incubated at 37°C in an atmosphere of 5% CO2 and 95% relative humidity. After 24 h of incubation, 100 µL of samples (ATBs and NPs) at concentrations varying from 0.01, 0.1, 1, 10, 100, and 1000, as well as the synergistic combinations (C1 to C5), was added to the wells containing the cells. Doxorubicin was used as a positive control. Appropriate controls with an equivalent concentration of DMSO were also included. Plates were incubated for 48 h, then the medium in each well was aspirated, and MTT solution (2 mg/mL in PBS) was diluted 1:10 with fresh medium and added to each well, and the plates were further incubated at 37°C for 4 h. Absorbance was measured on a BioTek microplate reader at 570 nm. The percentage of cell viability was calculated by comparing treated and untreated cells using the equation [39]:(3) cell viability %=ODtest/ODcontrol×100.
(§4) Then, the IC50 values of the samples having shown at least 50% inhibition were calculated by plotting the percentage of inhibition against the concentrations.

The subject of another assay is Raw 264.7 macrophages. The assay is described as follows: Cytotoxicity, MTT assay. Format: cell-based. Particulars: Raw 264.7, MTT. As for the experimental part: as §2, §3, §4
In a further assay the test system is S. epidermidis biofilm. The assay is described as follows: Biofilm eradication assay (MBEC, MTT). The class given is cell-based, Staphylococcus epidermidis. The note with it: geometric mean, S. epidermidis (n = 3); for minimal effective concentration: Staphylococcus epidermidis, 24 h. As for the experimental part:
as §1

Assay [2] relates to Staphylococcus saprophyticus biofilm. The experiment in a line: Checkerboard combination assay, biofilm inhibition. Format: cell-based. Here is the method: (§5) The effect of the combination of ATBs with NPs on biofilm formation was evaluated by determining the FICI, as described above for planktonic cells, except that the MHB was supplemented with 1% glucose.
(§6) The lowest MBICs of ATBs or NPs that inhibited metabolic activity in the biofilm were determined as described above. The FICI was used to perform the effect of combination and calculated as follows: FICI: (MBIC of ATBs in combinations/MBIC of ATBs alone) + (MBIC of NP in the combinations/MBIC of NP alone). FICI was interpreted as indicated above.

The test system of assay [3] is Staphylococcus epidermidis biofilm. The assay is described as follows: Checkerboard combination assay, biofilm inhibition. Format: cell-based. Here is the method:
as §5, §6

The test system of assay [4] is Staphylococcus aureus biofilm. The assay is described as follows: Checkerboard combination assay, biofilm inhibition. The class given is cell-based. As for the experimental part: as §5, §6
The subject of a further assay is S. aureus biofilm. The experiment in a line: Biofilm eradication assay (MBEC, MTT). Format: cell-based, Staphylococcus aureus. Particulars: geometric mean, S. aureus (n = 3); for minimal effective concentration: Staphylococcus aureus, 24 h. As for the experimental part:
as §1

Where [5] appears, read: Staphylococcus aureus, antibiotics, read-out: MBC.
Where [6] appears, read: Staphylococcus aureus, read-out: MIC.
Where [7] appears, read: Epithelial cell, read-out: IC50.
[8] abbreviates: Mus musculus, RAW264.7, 48 h, read-out: IC50.
Where [9] appears, read: S. saprophyticus, biofilm inhibition, mean.
The mark [10] stands for this setting: antibiotic alone, S. saprophyticus biofilm inhibition.
[11] abbreviates: S. epidermidis, biofilm inhibition, mean.
The mark [12] stands for this setting: antibiotic alone, S. epidermidis biofilm inhibition.
Where [13] appears, read: antibiotic alone, S. aureus biofilm inhibition.
Where [14] appears, read: S. aureus, biofilm inhibition, mean.

Molecules are shown by their SMILES. ≈ marks a conversion by molar mass, not a printed value. Where “and” joins values, the source holds several entries; their conditions need not be identical. Equal entries are not always repeated. Where two headings read alike, the source gives them in different places.

On to `CC1(C)S[C@@H]2[C@H](NC(=O)[C@H](N)c3ccc(O)cc3)C(=O)N2[C@H]1C(=O)O` [Amoxicillin, amoxicillin], for which the minimal effective concentration in the assay on S. saprophyticus biofilm came to 9.33 µg/mL; with S. epidermidis biofilm, 16 µg/mL; with S. aureus biofilm it was 37.3 µg/mL. Besides, in the assay with S. aureus (setting [5]), the MBC was > 128 µg/mL. The MIC with S. aureus (setting [6]) was 86.7 µg/mL (≈ 237 µM). The IC50 entry in [1] is “— (IC50 > 1000 µg/mL)”; in [1] (setting [7]), > 1000 µg/mL; in the assay with Raw 264.7 macrophages (setting [8]), > 1000 µg/mL; with Raw 264.7 macrophages (48 h), “— (IC50 > 1000 µg/mL)”. Moreover, the “MBIC alone, ATB” value is reported as 8.33 µg/mL in assay [2] (setting [9]); 8.33 µg/mL in assay [2] (setting [10]); 2.08 µg/mL in [3] (setting [11]); 2.08 µg/mL in [3] (setting [12]); 1.5 µg/mL in assay [4] (setting [13]).

For `Cc1nnc(SCC2=C(C(=O)O)N3C(=O)[C@@H](NC(=O)Cn4cnnn4)[C@H]3SC2)s1` [Cefazolin, cefazolin], the minimal effective concentration stood at 10.7 µg/mL in the assay on S. saprophyticus biofilm, 10.7 µg/mL with S. epidermidis biofilm and 42.7 µg/mL in the assay with S. aureus biofilm. In addition, the MBC in the assay with S. aureus (setting [5]) was > 128 µg/mL. Besides, in the assay with S. aureus (setting [6]), the MIC was determined as 42.7 µg/mL (≈ 93.9 µM). For the same molecule, the IC50 entry was “— (IC50 > 1000 µg/mL)” in assay [1], > 1000 µg/mL in [1] (setting [7]), > 1000 µg/mL in the assay with Raw 264.7 macrophages (setting [8]) and 504.26 µg/mL in the assay on Raw 264.7 macrophages (48 h). In addition, the “MBIC alone, ATB” value in assay [2] (setting [9]) came out at 8.33 µg/mL; in [2] (setting [10]), 8.33 µg/mL; in [3] (setting [11]), 8.66 µg/mL; in [3] (setting [12]), 8.66 µg/mL; in assay [4] (setting [14]), 4.66 µg/mL; in [4] (setting [13]), 4.66 µg/mL.

In the case of `C=CC1=C(C(=O)O)N2C(=O)[C@@H](NC(=O)/C(=N\OCC(=O)O)c3csc(N)n3)[C@H]2SC1` [Cefixime, cefixime], the minimal effective concentration was 48 µg/mL in the assay on S. saprophyticus biofilm, 42.7 µg/mL in the assay with S. epidermidis biofilm and 42.7 µg/mL in the assay on S. aureus biofilm. In the assay on S. aureus (setting [5]), the MBC was > 128 µg/mL. The MIC with S. aureus (setting [6]) stood at 213 µg/mL (≈ 470 µM). Further, the IC50 entry is “— (IC50 > 1000 µg/mL)” in assay [1], > 1000 µg/mL in [1] (setting [7]) and 473.83 µg/mL with Raw 264.7 macrophages (48 h). In addition, the “MBIC alone, ATB” value is 48 µg/mL in [2] (setting [10]), 64 µg/mL in [3] (setting [12]) and 64 µg/mL in [4] (setting [13]).

`NC[C@H]1O[C@H](O[C@H]2[C@H](O)[C@@H](O[C@H]3O[C@H](CO)[C@@H](O)[C@H](N)[C@H]3O)[C@H](N)C[C@@H]2N)[C@H](O)[C@@H](O)[C@@H]1O` [Kanamycin, kanamycin]: the values for the MBEC with S. saprophyticus biofilm, in the assay with S. epidermidis biofilm and in the assay on S. aureus biofilm were 10.66 µg/mL, 13.33 µg/mL and 14.66 µg/mL, respectively. Also, the MBC in the assay on S. aureus (antibiotics) is 69.33 µg/mL (≈ 143 µM). For the same molecule, the MIC with S. aureus came to 22.66 µg/mL (≈ 46.8 µM). Further, the IC50 entry (in assay [1]; with Raw 264.7 macrophages (48 h)) was “— (IC50 > 1000 µg/mL)” in each case. Further, the “MBIC alone, ATB” value in [2] (setting [9]) is 4.08 µg/mL; in [2] (setting [10]), 4.083 µg/mL; in assay [3] (setting [11]) it was 24.66 µg/mL; in [3] (antibiotic alone, S. epidermidis biofilm inhibition, listed as Kan), 24.66 µg/mL and 43.33 µg/mL; in [4] (setting [13]), 1.83 µg/mL.

Turning to `Cc1ccc(C(C)C)c(O)c1` [Thymol, thymol], the minimal effective concentration in the assay on S. saprophyticus biofilm, in the assay with S. epidermidis biofilm and in the assay on S. aureus biofilm was 107 µg/mL in each case. Moreover, the MIC with S. aureus (setting [6]) is 299 µg/mL (≈ 1990 µM). Also, in the assay on S. aureus (Staphylococcus aureus, natural products, read-out: MBC), the MBC is > 1020 µg/mL. The results for the half-inhibitory concentration (IC50) (in assay [1] (setting [7]); with Raw 264.7 macrophages (setting [8])) were > 1000 µg/mL and 442 µg/mL, respectively. Moreover, the “MBIC alone, NPs” value in [2] (setting [9]) came out at 128 µg/mL; in assay [2] (natural product alone, S. saprophyticus biofilm inhibition), 128 µg/mL; in assay [3] (setting [11]) it was 213.33 µg/mL; in [3] (natural product alone, S. epidermidis biofilm inhibition) it was 213.33 µg/mL; in assay [4] (setting [14]), 341.33 µg/mL; in assay [4] (natural product alone, S. aureus biofilm inhibition) it was 341.33 µg/mL.

These data come from article PMC12339163, “Combining Plant Bioactives With Antibiotics for Enhanced Antibiofilm Activity Against Uropathogenic Staphylococcus spp. and Cytotoxicity Evaluation” (Advances in Pharmacological and Pharmaceutical Sciences, 2025).
